According to ChEMBL document CHEMBL5154871, “Non-peptidyl non-covalent cathepsin C inhibitoEEr bearing a unique thiophene-substituted pyridine: Design, structure-activity relationship and anti-inflammatory activity in vivo” (Eur J Med Chem, 2022):

Key:
Dipeptidyl peptidase 1 [1] = target: T1, Dipeptidyl peptidase 1 (Homo sapiens, UniProt P53634); test: Inhibition of human recombinant Cathepsin C using H-Gly-Arg-AMC as substrate pretreated for 30 mins followed by substrate addition and incubated for 60 mins by microplate reader assay
Dipeptidyl peptidase 1 [2] = target: T1, Dipeptidyl peptidase 1; test: Inhibition of Cathepsin C in human U-937 cells using H-Gly-Phe-AFC as substrate pretreated for 1 hr followed by substrate addition and incubated for 60 mins by microplate reader assay; type: cell-based
Dipeptidyl peptidase 1 [3] = target: T1, Dipeptidyl peptidase 1; test: Inhibition of Cathepsin C in human THP-1 cells using H-Gly-Phe-AFC as substrate pretreated for 1 hr followed by substrate addition and incubated for 60 mins by microplate reader assay; type: cell-based
Cathepsin B = Cathepsin B (Homo sapiens, UniProt P07858); test: Inhibition of human recombinant Cathepsin B using Z-Leu-Arg-AMC as substrate pretreated for 60 mins followed by substrate addition and incubated for 30 mins by microplate reader assay

T1 sequence (P53634 25-134 limits assumed): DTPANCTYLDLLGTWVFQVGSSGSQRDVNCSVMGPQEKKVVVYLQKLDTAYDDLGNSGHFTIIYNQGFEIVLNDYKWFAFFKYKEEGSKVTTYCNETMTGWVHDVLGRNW
T1 sequence (P53634 231-394 limits assumed): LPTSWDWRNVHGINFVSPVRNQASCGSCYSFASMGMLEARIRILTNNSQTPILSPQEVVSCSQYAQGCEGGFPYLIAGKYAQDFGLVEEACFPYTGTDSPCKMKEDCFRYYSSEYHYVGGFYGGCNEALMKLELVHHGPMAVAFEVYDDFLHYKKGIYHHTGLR
T1 sequence (P53634 395-463 limits assumed): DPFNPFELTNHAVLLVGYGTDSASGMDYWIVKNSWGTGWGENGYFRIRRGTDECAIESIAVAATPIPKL

| Compound | IC50 (Dipeptidyl peptidase 1 [1]) [nM] | IC50 (Dipeptidyl peptidase 1 [2]) [nM] | IC50 (Dipeptidyl peptidase 1 [3]) [nM] | IC50 (Cathepsin B) [nM] |
| --- | --- | --- | --- | --- |
| FC(F)(F)c1cccc(Nc2nc(Nc3ccc(-c4ccsc4)cc3)ncc2Cl)c1 | > 5000 | > 5000 | > 5000 |  |
| O=[N+]([O-])c1cc(-c2ccsc2)cnc1Nc1ncc(Cl)c(Nc2cccc(C(F)(F)F)c2)n1 | 152 | 276 | 197 |  |
| FC(F)(F)c1cccc(Nc2nc(Nc3ccc(-c4ccsc4)nc3)ncc2Cl)c1 | 103 | 216 | 160 |  |
| NC(=O)c1ccc(-c2cnc(Nc3ccc(-c4ccsc4)cn3)nc2Nc2cccc(C(F)(F)F)c2)cc1 | 133 | 285 | 357 |  |
| FC(F)(F)c1cccc(Nc2nc(Nc3ccc(-c4ccsc4)cn3)ncc2-c2ccncc2)c1 | > 5000 | > 5000 | > 5000 |  |
| CN1CC=C(c2cnc(Nc3ccc(-c4ccsc4)cn3)nc2Nc2cccc(C(F)(F)F)c2)CC1 | > 5000 | > 5000 | > 5000 |  |
| FC(F)(F)c1cccc(Nc2nc(Nc3ncc(-c4ccsc4)cn3)ncc2Cl)c1 | > 5000 | > 5000 | > 5000 |  |
| FC(F)(F)c1cccc(Nc2nc(Nc3ccc(-c4ccsc4)cn3)ncc2-c2ccoc2)c1 | > 5000 | > 5000 | > 5000 |  |
| FC(F)(F)c1cccc(Nc2nc(Nc3ccc(-c4ccsc4)cn3)ncc2-c2ccc(Cl)cc2)c1 | 216 | 356 | 288 |  |
| Cn1cc(-c2cnc(Nc3ccc(-c4ccsc4)cn3)nc2Nc2cccc(C(F)(F)F)c2)cn1 | 248 | 416 | > 3000 |  |
| CC(=O)Nc1ccc(Nc2nc(Nc3ccc(-c4ccsc4)cn3)ncc2Cl)cc1 | 76.4 | 99.9 | 63.9 |  |
| FC(F)(F)c1cccc(Nc2nc(Nc3ccc(-c4cccs4)cn3)ncc2Cl)c1 | 128 | 396 | 129 |  |
| Nc1ccc(Nc2nc(Nc3ccc(-c4ccsc4)cn3)ncc2Cl)cc1 | 57 | 89.5 | 111 | > 5000 |
| FC(F)(F)Oc1cccc(Nc2nc(Nc3ccc(-c4ccsc4)cn3)ncc2Cl)c1 | 252 | 246 | 180 |  |
| CS(=O)(=O)c1ccc(-c2cnc(Nc3ccc(-c4ccsc4)cn3)nc2Nc2cccc(C(F)(F)F)c2)cc1 | > 5000 | > 5000 | > 5000 |  |
| FC(F)(F)c1ccc(CNc2nc(Nc3ccc(-c4ccsc4)cn3)ncc2Cl)cc1 | 69.4 | 92.2 | 89.8 |  |
| FC(F)(F)c1cccc(Nc2nc(Nc3ccc(-c4ccco4)cn3)ncc2Cl)c1 | > 5000 | > 5000 | > 5000 |  |
| FC(F)(F)c1cccc(Nc2nc(Nc3ccc(-c4ccsc4)cn3)ncc2Br)c1 | 98.6 | 180 | 203 |  |
| Clc1cnc(Nc2ccc(-c3ccsc3)cn2)nc1NC1CCNCC1 | 91.5 | 169 | 120 |  |
| FC(F)(F)c1ccc(Nc2nc(Nc3ccc(-c4ccsc4)cn3)ncc2Cl)cc1 | 105 | 150 | 184 |  |

| Compound | IC50 (Dipeptidyl peptidase 1 [1]) [nM] | IC50 (Dipeptidyl peptidase 1 [2]) [nM] | IC50 (Dipeptidyl peptidase 1 [3]) [nM] | IC50 (Cathepsin B) [nM] |
| --- | --- | --- | --- | --- |
| CC(=O)c1cccc(-c2cnc(Nc3ccc(-c4ccsc4)cn3)nc2Nc2cccc(C(F)(F)F)c2)c1 | 156 | 228 | 308 |  |
| FC(F)(F)c1cccc(Nc2nc(Nc3cccc(-c4ccsc4)c3)ncc2Cl)c1 | 65.6 | 178 | 203 | > 5000 |
| FC(F)(F)c1cccc(Nc2nc(Nc3ccc(-c4ccsc4)nn3)ncc2Cl)c1 | 90.6 | 181 | 89.5 |  |
| FC(F)(F)c1cccc(Nc2nc(Nc3cnc(-c4ccsc4)cn3)ncc2Cl)c1 | > 5000 | > 5000 | > 5000 |  |
| NC(=O)c1cccc(-c2cnc(Nc3ccc(-c4ccsc4)cn3)nc2Nc2cccc(C(F)(F)F)c2)c1 | > 5000 | > 5000 | > 5000 |  |
| CC(=O)Nc1ccc(-c2cnc(Nc3ccc(-c4ccsc4)cn3)nc2Nc2cccc(C(F)(F)F)c2)cc1 | 61.8 | 86.5 | 102 |  |
| Clc1cnc(Nc2ccc(-c3ccsc3)cn2)nc1Nc1ccccn1 | 102 | 155 | 141 |  |
| CN1CCN(Cc2ccc(-c3cnc(Nc4ccc(-c5ccsc5)cn4)nc3Nc3cccc(C(F)(F)F)c3)cc2)CC1 | > 5000 | > 5000 | > 5000 |  |
| FC(F)(F)c1cccc(Nc2nc(Nc3ccc(-c4ccsc4)cn3)ncc2-c2ccccc2)c1 | > 5000 | > 5000 | > 5000 |  |
| CC(=O)Nc1cccc(-c2cnc(Nc3ccc(-c4ccsc4)cn3)nc2Nc2cccc(C(F)(F)F)c2)c1 | > 5000 | > 5000 | > 5000 |  |
| Fc1ccc(Nc2nc(Nc3ccc(-c4ccsc4)cn3)ncc2Cl)cc1F | 99.8 | 174 | 159 |  |
| FC(F)(F)c1cccc(Nc2nc(Nc3ccc(-c4ccsc4)cn3)ncc2-c2cccc(Cl)c2)c1 | > 5000 | > 5000 | > 5000 |  |
| FC(F)(F)c1cccc(Nc2nc(Nc3cc(-c4ccsc4)ccn3)ncc2Cl)c1 | 77.9 | 155 | 260 |  |
| Fc1ccc(Nc2nc(Nc3ccc(-c4ccsc4)cn3)ncc2Cl)cc1 | 128 | 134 | 105 |  |
| FC(F)(F)Oc1ccc(Nc2nc(Nc3ccc(-c4ccsc4)cn3)ncc2Cl)cc1 | 92.4 | 154 | 110 |  |
| CN1CCN(c2ccc(-c3cnc(Nc4ccc(-c5ccsc5)cn4)nc3Nc3cccc(C(F)(F)F)c3)cc2)CC1 | > 5000 | > 5000 | > 5000 |  |
| Fc1ccc(Nc2nc(Nc3ccc(-c4ccsc4)cn3)ncc2Cl)cc1C(F)(F)F | 142 | 200 | 170 |  |
| Nc1ccc(-c2cnc(Nc3ccc(-c4ccsc4)cn3)nc2Nc2cccc(C(F)(F)F)c2)cc1 | > 5000 | > 5000 | > 5000 |  |
| Nc1cccc(Nc2nc(Nc3ccc(-c4ccsc4)cn3)ncc2Cl)c1 | 132 | 127 | 156 |  |
